Experimental data taken from PubChem BioAssay (NCI).
Values joined by “and” are separate entries in the source; they are usually repeats but may differ in a detail not shown here. Equal entries are not always repeated.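 Values below derive from 48-hour exposures of cells grown in 96-well plates, with endpoints linearly interpolated between the two concentrations bracketing the appropriate inhibition level. GI50 is the concentration that inhibits growth by half. TGI marks complete inhibition of growth.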

What was measured:
Assay in all cases: inhibition of tumour cell growth, NCI panel, 48 h
RPMI-8226 leukemia = tested on: RPMI-8226 leukemia
SW-620 colon = tested on: SW-620 colon
KM12 colon = tested on: KM12 colon
U251 CNS = tested on: U251 CNS
HOP-92 NSCLC = tested on: HOP-92 NSCLC
IGROV1 ovarian = tested on: IGROV1 ovarian
T-47D breast = tested on: T-47D breast
SF-539 CNS = tested on: SF-539 CNS
NCI-H460 lung = tested on: NCI-H460 lung
UACC-62 melanoma = tested on: UACC-62 melanoma

Structure (SMILES) | GI50 (RPMI-8226 leukemia) | TGI (RPMI-8226 leukemia) | GI50 (SW-620 colon) | TGI (SW-620 colon) | GI50 (KM12 colon) | TGI (KM12 colon) | GI50 (U251 CNS) | TGI (U251 CNS) | GI50 (HOP-92 NSCLC) | TGI (HOP-92 NSCLC) | GI50 (IGROV1 ovarian) | TGI (IGROV1 ovarian) | GI50 (T-47D breast) | TGI (T-47D breast) | GI50 (SF-539 CNS) | TGI (SF-539 CNS) | GI50 (NCI-H460 lung) | TGI (NCI-H460 lung) | GI50 (UACC-62 melanoma) | TGI (UACC-62 melanoma)
O=C1Nc2ccccc2/C1=C/C(=O)c1coc2c1C(=O)c1ccccc1C2=O | > 100 µM | > 100 µM | 99.6 µM | > 100 µM | > 100 µM | > 100 µM | > 100 µM | > 100 µM | 59.7 µM | > 100 µM | > 100 µM | > 100 µM | 56.9 µM | > 100 µM | > 100 µM | > 100 µM | > 100 µM | > 100 µM | 94.4 µM | > 100 µM
COc1ccc(C(=O)c2cc(OC)c(OC)c(OC)c2)cc1OC(=O)CCl | < 0.021 µM | 12.9 µM | < 0.0208 µM | > 100 µM | < 0.0143 µM | > 100 µM | 0.0422 µM | > 100 µM |  | > 100 µM | 0.359 µM | > 100 µM | 3.03 µM | 97.3 µM | < 0.01 µM | 0.0541 µM | 0.0399 µM | > 100 µM | 0.565 µM | > 100 µM
Nc1c(C(=O)c2cccc(-c3ccncc3)c2)cnn1-c1ccc(F)cc1F | 6.16 µM | > 25 µM | 3.12 µM | > 25 µM | 2.05 µM | > 25 µM | 12.6 µM | > 25 µM | 4.71 µM | > 22.9 µM | 9.98 µM | > 25 µM | 3.67 µM | > 25 µM | > 16.4 µM | > 25 µM | 5.2 µM | > 25 µM | 5.34 µM | > 25 µM
COc1cc(OC(=O)c2ccccc2)cc2c1C(=O)C=CC2=O |  | 29.7 µM |  | 39.2 µM |  | 38.8 µM |  | 38.2 µM |  | 5.05 µM |  | 29 µM |  | 4.73 µM |  | 41.7 µM |  | 60.9 µM |  | 28.5 µM
COC(=O)c1nc(-c2ccccc2)oc1S(=O)(=O)Cc1ccccc1 | 3.05 µM | 9.51 µM | 2.05 µM | 4.14 µM | 20.8 µM | 39.2 µM | 15.5 µM | 29 µM | 1.61 µM | 3.12 µM | 2.75 µM | 7.21 µM | 2.17 µM | 5.95 µM | 11.2 µM | 23.7 µM | 19.8 µM | 40 µM | 6.52 µM | 20 µM
C#Cc1c(F)ccc2cc(O)cc(-c3ncc4c(N5CC6CCC(C5)N6)nc(OC[C@@]56CCCN5C[C@H](F)C6)nc4c3F)c12 | 5.1 µM | 29.9 µM | 1.32 µM | 10.3 µM | 5.03 µM | 17.5 µM | 10.9 µM | 31.5 µM | 4.01 µM | 16.5 µM | 13.9 µM | 29.9 µM | 16.3 µM | 40.1 µM | 14 µM | 27.2 µM | 6.87 µM | 21.2 µM | 16.6 µM | 30.5 µM
C[C@H]1[C@H](C)CC[C@]2(CO)CC[C@]3(C)C(=CC[C@@H]4[C@@]5(C)CCCNC(C)(C)[C@@H]5CC[C@]43C)[C@H]12 | 1.85 µM | 4.14 µM | 1.79 µM | 3.54 µM | 1.84 µM | 3.51 µM | 1.67 µM | 3.15 µM | 1.52 µM | 3.19 µM | 1.85 µM | 3.72 µM | 1.68 µM | 4.03 µM | 1.69 µM | 3.16 µM | 1.78 µM | 3.35 µM | 1.85 µM | 3.35 µM
COc1cc(C[C@H]2c3cc(OC)c(OC)cc3CCN2C)c(Oc2cc3c(cc2OC)-c2c(OC)c(OC)cc4c2[C@H](C3)N(C)CC4)cc1OC | 3.22 µM | 25.5 µM and 15.4 µM | 13.3 µM | 22.6 µM and 32.5 µM | 13.3 µM | 20.4 µM and 26.7 µM | 10.7 µM | 8.95 µM and 22.7 µM | 13.3 µM | 8.94 µM and 28.8 µM | 14.2 µM | 32.6 µM and 28.3 µM |  | 23.4 µM | 3.97 µM | 16.2 µM and 9.41 µM | 14.1 µM | 20.1 µM and 27.5 µM | 19 µM | 13.4 µM and 34.2 µM
COc1ccc(-c2nc(-c3nc4ccc(OC)cc4[nH]3)c3ccccn23)cc1 | 1.72 µM | 5.57 µM | 4.26 µM | > 100 µM | 3.88 µM | 15.8 µM | 4.42 µM | > 100 µM | 2.31 µM | 8.4 µM | 2.7 µM | 6.98 µM | 2.7 µM | 9.75 µM | 9.71 µM | > 100 µM | 3.23 µM | 14 µM | 4.51 µM | 22 µM
COc1cc(C(=O)O[C@H](C(=O)NCCCCCNC(=O)[C@@H](OC(=O)c2cc(OC)cc3c(C)cccc23)[C@]2(C)CO2)[C@]2(C)CO2)c2cccc(C)c2c1 | 1.82 µM | 10.2 µM | < 0.0149 µM | > 100 µM | 0.5 µM | 1.41 µM | < 0.01 µM | 0.3 µM | 0.292 µM | 0.867 µM | 1.43 µM | > 100 µM | 1 µM |  | 0.119 µM | 0.587 µM |  | 0.675 µM | 0.53 µM | 1.08 µM
CCN(CC)CCCC(C)Nc1ccnc2cc(Oc3ccccc3)ccc12 (stereo unspecified) | 5.02 µM and 5.36 µM | 13.9 µM and 28.2 µM | 3.36 µM and 5.53 µM | 14.3 µM and 25.9 µM | 8.52 µM and 10.6 µM | 24.3 µM and > 100 µM | 2.71 µM and 5.51 µM | 9.31 µM and 19.8 µM | 5.62 µM and 3.78 µM | 20.5 µM and 27 µM | 3.55 µM and 14.1 µM | 16.9 µM and > 100 µM | 1.68 µM and 2.39 µM | 3.32 µM and 6.19 µM | 2.15 µM and 2 µM | 4.35 µM and 4.28 µM | 9.21 µM and 12.6 µM | 25.9 µM and 78.7 µM | 4.16 µM and 3.24 µM | 11.2 µM and 12.3 µM
N#CC(NC12CC3CC(CC(C3)C1)C2)c1ccc2c(c1)OCO2 (stereo unspecified) |  | > 100 µM |  | > 100 µM |  | > 100 µM |  | > 100 µM |  | > 100 µM |  | > 100 µM |  | > 100 µM |  | > 100 µM |  | > 100 µM |  | > 100 µM
